From ChEMBL document CHEMBL5380809, “Discovery of Novel N-Hydroxy-1,2,4-oxadiazole-5-formamides as ASM Direct Inhibitors for the Treatment of Atherosclerosis” (J Med Chem, 2023)
The source made the active and inactive calls. No cut-off for these calls is given here.

Legend:
[1] = target: T1, Sphingomyelin phosphodiesterase (Homo sapiens, UniProt P17405); experiment: Inhibition of recombinant human aSMase (62 to 628 residues) using HMU-PC as substrate incubated for 2 hrs by fluorescence based assay
T1 sequence (P17405 whole entry): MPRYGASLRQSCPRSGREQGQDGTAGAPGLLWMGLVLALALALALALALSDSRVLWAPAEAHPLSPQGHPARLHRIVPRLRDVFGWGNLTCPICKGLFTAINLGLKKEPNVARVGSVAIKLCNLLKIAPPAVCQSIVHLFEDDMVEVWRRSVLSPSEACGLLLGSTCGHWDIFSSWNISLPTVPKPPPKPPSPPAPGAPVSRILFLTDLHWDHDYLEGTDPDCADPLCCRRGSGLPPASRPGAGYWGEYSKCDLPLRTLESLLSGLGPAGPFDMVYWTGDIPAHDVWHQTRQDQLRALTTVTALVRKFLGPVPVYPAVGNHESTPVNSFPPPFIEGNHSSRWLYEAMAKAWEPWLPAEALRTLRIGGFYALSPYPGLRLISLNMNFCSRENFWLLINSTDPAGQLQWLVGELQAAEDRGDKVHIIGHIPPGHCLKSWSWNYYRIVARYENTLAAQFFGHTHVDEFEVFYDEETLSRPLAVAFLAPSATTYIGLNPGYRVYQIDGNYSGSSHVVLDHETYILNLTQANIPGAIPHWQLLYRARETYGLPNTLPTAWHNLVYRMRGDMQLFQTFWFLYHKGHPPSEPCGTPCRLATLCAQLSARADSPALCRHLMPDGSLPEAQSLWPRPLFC

HUVEC = experiment: Antiinflammatory activity against HUVEC cells assessed as decrease in Ox-LDL-induced IL-6 mRNA level at 5 uM measured after 22 hrs by RT-PCR analysis; assay type: functional, cell-based; conditions: Homo sapiens
Mus musculus [2] = experiment: Antiatherosclerotic activity in high-fat diet fed ApoE-/- mouse assessed as reduction in plasma Ox-LDL-C level at 40 mg/kg, ip bid measured after 8 weeks; assay type: functional, organism-based
[3] = Half life in ICR mouse at 1 mg/kg, iv measured for 0.083 to 24 hrs by LC-MS/MS analysis; assay type: ADME, organism-based; conditions: in vivo, time 0.083-24 hrs
[4] = Cmax in ICR mouse at 1 mg/kg, iv measured for 0.083 to 24 hrs by LC-MS/MS analysis; assay type: ADME, organism-based; parameters: time lower 0.083 hrs, dose 1 mg/kg, time upper 24 hrs, route iv; conditions: in vivo
Mus musculus [5] = experiment: In vivo inhibition of aSMase in C57BL/6 mouse assessed as decrease in liver sphingomyelin level at 6 to 40 mg/kg, ip bid for 1 week by ELISA method; assay type: functional, organism-based; conditions: dose 6-40 mg/kg, time 1.0 weeks
Mus musculus [6] = experiment: Antiatherosclerotic activity in high-fat diet fed ApoE-/- mouse assessed as reduction in aortic arch lipid accumulation at 12 to 40 mg/kg, ip bid measured after 8 weeks; assay type: functional, organism-based; conditions: dose 12-40 mg/kg
Mus musculus [7] = experiment: Antiatherosclerotic activity in high-fat diet fed ApoE-/- mouse assessed as reduction in plasma ceramide level administered intraperitoneally twice daily measured after 8 weeks by ELISA method; assay type: functional, organism-based; conditions: dose 12-40 mg/kg, route ip
[8] = MRT (0 to t) in ICR mouse at 10 mg/kg, po measured for 0.083 to 24 hrs by LC-MS/MS analysis; assay type: ADME, organism-based; conditions: in vivo, time 0.083-24 hrs
Mus musculus [9] = experiment: Antiatherosclerotic activity in high-fat diet fed ApoE-/- mouse assessed as reduction in lipid plaque area administered intraperitoneally twice daily measured after 8 weeks by oil red O staining based analysis; assay type: functional, organism-based; conditions: dose 12-40 mg/kg, route ip
[10] = AUC (0 to infinity ) in ICR mouse at 1 mg/kg, iv measured for 0.083 to 24 hrs by LC-MS/MS analysis; assay type: ADME, organism-based; parameters: time upper 24 hrs, time lower 0.083 hrs, dose 1 mg/kg, route iv; conditions: in vivo

IC50 [1]: 1.5 µM
half-life [3]: 12 min
Cmax [4]: 0.787 µg/mL
MRT last [8]: 19.2 min
AUC(0-inf) [10]: 0.228 µg·h/mL
SMILES: O=C(NO)c1nc(-c2ccc(COc3ccc(Br)cc3)cc2)no1
Activity (HUVEC): Active
Activity (Mus musculus [2]): Active
Activity (Mus musculus [5]): Active
Activity (Mus musculus [6]): Active
Activity (Mus musculus [7]): Dose-Dependent Effect
Activity (Mus musculus [9]): Dose-Dependent Effect
